Entries after “also recorded” stand apart in the source; their conditions may differ. Where a name gives a salt, the structure may show the parent alone. Read-outs that look alike come from different tables or passages of the source.
Assays:
[1] = tested on: Plasmodium cynomolgi (strain B); assay: Radical Curative Test in Rhesus Monkeys, SEATO Medical Research Laboratory; assay type: in vivo, Indian rhesus monkeys; settings: for Radical Curative Activity, Cures (C): Table 1, Seato Rhesus; for Cures (C): Table 8, Seato
Procedure: Radical Curative Test in Rhesus Monkeys, SEATO Medical Research Laboratory, Bangkok,
This test is designed to evaluate the tissue schizonticidal (radical curative) activity of test compounds. Well-conditioned Indian rhesus monkeys of either sex weighing 2-4 Kg are utilized. Plasmodium cynomolgi (strain B) sporozoites are prepared by grinding heavily infected Anopheles dirus salivary glands in 1:1 monkey serum-saline vehicle.
Monkeys are infected by I.V. injection of 10^6 freshly isolated P. cynomolgi sporozoites on day 0. A rapidly rising parasitemia develops after a 7 to 9 day prepatient period, and administration of the test drug is initiated when the rising parasite count exceeds 5000 per mm^3 (typically day 10-12). Test drugs are administered orally (by nasogastric intubation) once daily for 7 consecutive days in aqueous solution or, if insoluble, in suspension in 0.3% methylcellulose solution. Chloroquine diphosphate (3.1 mg of base/kg orally per day) is always administered concurrently with the test drug for 7 days to eliminate blood schizonts. Thus any tissue schizonticidal activity of the test drug will always be apparent even if it lacks blood schizonticidal activity.
A vehicle control monkey and a positive drug control (primaquine) monkey are included in each group of inoculated monkeys.
The effect of the test drug is determined by counting blood parasites. Parasite counts are made daily through day 20, and every two days thereafter. Initially a clearance of blood parasites is observed due to the blood schizonticidal action of chloroquine. […] If there is no relapse within 20 days of the initial clearance of parasitemia, the monkey is splenectomized and its parasitemia followed for an additional 30 days. If there is no relapse within this period, the experiment is terminated and the monkey is considered "cured". Alternately, in some experiments, negative parasitemia was followed for 100 days without prior splenectomy. It has been determined that the splenectomy and non-splenectomy methods yield virtually identical results.
Primaquine diphosphate cures over 90% of monkeys in this test system when administered at a dose of 1.3 mg/kg of salt per day for 7 days ([…]) in combination with chloroquine.

[2] = tested on: Plasmodium berghei KBG 173; assay: animal or person; assay type: in vivo, young ICR/HA Swiss mice; settings: for minimal effective dose: Plasmodium berghei, in Mus musculus; for suppressive activity in words: Rane mouse test; for ΔMST / Activity in words / Toxicity in words: 5 mice; for Activity in words / Toxicity in words: Rane, 20-640 mg/kg
Text: Blood Schizonticidal Test (Mouse), University of Miami, Rane (suppressive)
This system is based on comparisons of responses to test compounds by Plasmodium berghei KBG 173 malaria in mice as expressed in mean survival times and the mean survival times of untreated controls. Thus, compounds noted as active produce increases in the survival times of the treated animals that are significant when compared with the survival times of untreated controls. Since an established disease is less sensitive to treatment than a disease in the early stages of development, treatment is withheld until the parasitemia is relatively high in order to insure a more reliable assay of activity and the selection of appropriate compounds for intensive preclinical studies.
Utilizing young ICR/HA Swiss mice and a standard inoculum of Plasmodium berghei KBG 173, it is possible to produce a uniform disease fatal to 100% of untreated animals within 6 to 8 days with a mean survival time of 6.2 days. Test animals weigh from 18 to 22 grams but weight variations in any given experimental or control group are confined to 2 to 3 grams. All animals in any given test are approximately of the same age. Animals on test are housed in metal-topped plastic cages, given a standard laboratory diet and water ad libitum.
Test animals receive an intraperitoneal injection of 0.5 ml of 1:100 dilution of heparinized heart's blood with a minimum of 90% parasitized cells (4×10^7 cells), drawn from donor mice infected one week earlier with Plasmodium berghei. The donor strain is maintained by weekly passages in separate groups of mice inoculated with a 0.5 ml of 1:500 dilution of heparinized heart's blood.
Test compounds are administered after dissolution or suspension in peanut oil. A single dose is given subcutaneously 72 hours after the mice are infected with Plasmodium berghei. At this time a 10-15 percent parasitemia has developed; the disease is well established but has not produced sufficient debility to alter the response of the host to toxic effects of the drug on test. Since treatment is withheld for three days to permit the infection to become well established and death occurs in untreated controls within 6 to 8 days, it is believed that this system presents a candidate compound with the maximum challenge. In order to check factors such as changes in the infectivity of Plasmodium berghei or in the susceptibility of the host or to detect technical errors, a group of infected animals treated with pyrimethamine at dose levels producing definite increases in survival time is included as a positive control in every experiment.
In each experiment test compounds are administered in graded doses. […] However, if an active drug is toxic for the host, its toxicity may become a limiting factor; continued increases in dose levels also increase the toxic effects and may result in the diminution of survival times. Deaths prior to the sixth day, when untreated controls begin to die, are regarded as non-parasitic and become the basis for the interpretation that the drug is toxic. Treated animals are kept under observation for 60 days. Survivors at the end of this period of time are considered as cured.
An increase of 100% in mean survival time is considered the minimum effective response for a candidate compound. In calculating mean survival time, toxic deaths and 60 day survivors are not included.

[3] = Acute toxicity in the rat by oral or intraperitoneal administration; settings: Rat
[4] = tested on: P. berghei yoelli; assay: Causal prophylactic activity against sporozoite induced P. berghei yoelli in the mouse; assay type: in vivo; settings: subcutaneous
[5] = tested on: Chesson strain of P. vivax; assay: Antimalarial activity against (trophozoite-induced) infections of the Chesson strain of P. vivax in the Aotus monkey; assay type: in vivo
[6] = tested on: methemoglobin; assay type: in vivo, Dog
Procedure: ^a Primaquine, Comparative Compound, or Compound X, were administered
orally by capsule for four days on days 0, 1, 2 and 3 at a dose of 3 mg/k
primaquine base per day or the molar equivalent.
^e Total methemoglobin production expressed as mg of MHb/ml of
blood/hr for a total of 2 days after administration of the first dose.
^f Area under the % methemoglobin versus time curve (AUC).

[7] = P. cynomolgi, 0.316 mg/kg (× 7)
[8] = Table 1, P. berghei, Rane Mouse Test, 160 mg/kg
[9] = text, listed as 5-(4-fluorophenoxy)-primaquine
[10] = text, listed as 5-(4-fluorophenoxy)primaquine
[11] = oral capsule, days 0-3, 3 mg/kg primaquine base per day or molar equivalent, means differ significantly (p <.05)

Structure (SMILES): COc1cc(NC(C)CCCN)c2nccc(C)c2c1 (stereo not drawn) [4-methylprimaquine diphosphate, 4-methylprimaquine]
- radical curative activity compared with primaquine, in words [1]: comparable to primaquine and somewhat greater in potentcy; also recorded: slightly more effective than primaquine
- radical curative activity in words ([1]; 0.316 mg/kg): inactive
- Cures ([1]; 1.0 mg/kg): 100%
- Radical Curative Activity, Cures (C) [1, 7]: 0/4
- Radical Curative Activity, Cures (C) ([1]; P. cynomolgi, 1.0 mg/kg (× 7)): 2/2
- minimal effective dose ([2]; read-out: active dose (active only at)): 160 mg/kg
- minimal effective dose ([2]; curative only at this toxic dose, read-out: curative dose, suppressive test): 640 mg/kg
- suppressive activity in words [2]: very weak activity at non-toxic dose levels
- ΔMST [2, 8]: 9 days
- ΔMST ([2]; Table 1, P. berghei, Rane Mouse Test, 320 mg/kg): 10 days
- ΔMST ([2]; Table 4, 160 mg/kg): 9 days
- ΔMST ([2]; Table 4, 320 mg/kg): 10 days

Structure (SMILES): COc1cc(NC(C)CCCN)c2ncccc2c1Oc1ccc(F)cc1 (stereo not drawn) [5-(4-Fluorophenoxy)primaquine citrate, 5-(4-fluorophenoxy)-primaquine]
- Radical Curative Activity, Cures (C) [1, 7]: 0/2
- Radical Curative Activity, Cures (C) ([1]; P. cynomolgi, 1.0 mg/kg (× 7)): 1/3
- Radical Curative Activity, Cures (C) ([1]; P. cynomolgi, 3.16 mg/kg (× 7)): 1/1
- radical curative activity compared with primaquine, in words [1, 9]: no more active than primaquine in the Rhesus model as a radical curative drug
- radical curative activity compared with primaquine, in words [1, 10]: not significantly better than that of primaquine
- ΔMST ([2]; Table 1, P. berghei, Rane Mouse Test, 80 mg/kg): 7.0 days
- ΔMST [2, 8]: 9 days
- suppressive activity in words [2, 9]: active (and non-toxic) in mice at the high dose levels of 320 and 640 mg/kg
- suppressive activity in words [2, 10]: not an effective suppressive drug

Structure (SMILES): COc1cc(NC(C)CCCN)c2nc(O)cc(C)c2c1Oc1cccc(C(F)(F)F)c1 (stereo not drawn) [Analog 1]
- Activity in words ([2]; Table 8, P. berghei): Inactive
- Toxicity in words ([2]; Table 8, P. berghei): non-toxic

Structure (SMILES): COc1cc(NC(C)CCCN)c2nc(Oc3ccc(Cl)cc3)cc(C)c2c1Oc1cccc(C(F)(F)F)c1 (stereo not drawn) [Analog 2]
- Activity in words ([2]; Table 8, P. berghei): Inactive
- Toxicity in words ([2]; Table 8, P. berghei): non-toxic

Structure (SMILES): COc1cc(NC(C)CCCN)c2nc(OCc3ccc(Cl)cc3)cc(C)c2c1Oc1cccc(C(F)(F)F)c1 (stereo not drawn) [Analog 3]
- Activity in words ([2]; Table 8, P. berghei): Inactive
- Toxicity in words ([2]; Table 8, P. berghei): non-toxic

Structure (SMILES): COc1cc(NC(C)CCCN)c2nc(Cl)cc(C)c2c1Oc1cccc(C(F)(F)F)c1 (stereo not drawn) [Analog 4]
- Cures (C) ([1]; P. cynomolgi, 0.1 mg/kg (×7)): 0/1
- Cures (C) ([1]; P. cynomolgi, 0.316 mg/kg (×7)): 1/2
- Cures (C) ([1]; P. cynomolgi, 1.0 mg/kg (×7)): 2/2
- Cures (C) ([2]; Table 8, number of 5 mice, 160 mg/kg): 1

Structure (SMILES): COc1cc(NC(C)CCCN)c2nccc(C)c2c1Oc1cccc(C(F)(F)F)c1.O=C(O)CCC(=O)O (stereo not drawn) [Comparative Compound, 8-[(4-amino-1-methylbutyl)amino]-6-methoxy-4-methyl-5-(3-trifluoromethylphenoxy)quinoline succinate]
- LD50 (95% Confidence Limit) ([3]; female, I.P.): 54 (42-71) mg/kg (Salt)
- LD50 (95% Confidence Limit) ([3]; female, oral): 401 (368-447) mg/kg (Salt)
- LD50 (95% Confidence Limit) ([3]; male, I.P.): 86 (65-109) mg/kg (Salt)
- Cures ([1]; Table 2, P. cynomolgi, Rhesus, 0.0316 mg/kg × 7 of salt): 0/2
- Cures ([1]; Table 2, P. cynomolgi, Rhesus, 0.10 mg/kg × 7 of salt): 0/2
- Cures ([1]; Table 2, P. cynomolgi, Rhesus, 0.316 mg/kg × 7 of salt): 2/2
- Cures ([1]; Table 2, P. cynomolgi, Rhesus, 1.0 mg/kg × 7 of salt): 2/2
- Molar Primaquine Index by Regression Analysis ([1]; Table 2, ratio of molar ED50, relative to primaquine): 6.8
- Cures ([4]; 2.5 mg/kg of salt): 6/15
- Cures ([4]; 10 mg/kg of salt): 8/20
- Cures ([4]; 40 mg/kg of salt): 13/15
- Cures ([4]; 160 mg/kg of salt): 5/5
- ΔMST ([2]; Table 4, 5 mg/kg): 6 days
- ΔMST ([2]; Table 4, 10 mg/kg): 4 days
- ΔMST ([2]; Table 4, 20 mg/kg): 10 days
- Cures ([5]; 1 mg/kg × 3 of base): 1/3
- Cures ([5]; 2 mg/kg × 3 of base): 5/5
- Cures ([5]; 4 mg/kg × 3 of base): 4/4
- Cures ([5]; 16 mg/kg × 3 of base): 3/3
- increase of peak methemoglobin level versus Compound X ([6]; Table 7, equimolar doses): 56%
- peak level of methemoglobin ([6]; Table 7, equimolar doses): 25%
- Peak % MHb [6, 11]: 25.3 ± 8.30%
- Slope of MHb Formation [6, 11]: 0.55 ± 0.28
- Time of Peak MHb [6, 11]: 9.00 ± 1.73 days
- MHb Disappearance Half-Time ([6]; oral capsule, days 0-3, 3 mg/kg primaquine base per day or molar equivalent, no difference in the means): 9.14 ± 2.42 days
- MHb Production as AUC Corrected for Baseline ([6]; total methemoglobin production, oral capsule, days 0-3, 3 mg/kg primaquine base per day or molar equivalent, means differ significantly (p <.05)): 14,566 ± 5,475 mg of MHb/ml of blood/hr

— patent US4617394A, “4-methyl-5-(unsubstituted and substituted phenoxy)-2,6-dimethoxy-8-(aminoalkylamino) quinolines” (priority 1985, dated 1986)
